Data from ChEMBL document CHEMBL3045770, “Design and synthesis of some thieno[2,3-c]pyridazine derivatives of expected anticancer activity” (2013).

Experiments:
Assay type in all cases: functional
SNB-19 = assay: Cytotoxicity against Homo sapiens (human) SNB19 assessed as cell growth at 10 uM after 48 hr by SRB assay relative to control; details: SNB-19, 48 h, read-out: Activity
SF-539 = assay: Cytotoxicity against Homo sapiens (human) SF539 assessed as cell growth at 10 uM after 48 hr by SRB assay relative to control; details: SF-539, 48 h, read-out: Activity
HCT-116 = assay: Cytotoxicity against Homo sapiens (human) HCT116 assessed as cell growth at 10 uM after 48 hr by SRB assay relative to control; details: HCT-116, 48 h, read-out: Activity
NCI-H522 = assay: Cytotoxicity against Homo sapiens (human) NCI-H522 assessed as cell growth at 10 uM after 48 hr by SRB assay relative to control; details: NCI-H522, 48 h, read-out: Activity
EKVX = assay: Cytotoxicity against Homo sapiens (human) EKVX assessed as cell growth at 10 uM after 48 hr by SRB assay relative to control; details: read-out: Activity
SR = assay: Cytotoxicity against Homo sapiens (human) SR assessed as cell growth at 10 uM after 48 hr by SRB assay relative to control; details: read-out: Activity
CAKI-1 = assay: Cytotoxicity against Homo sapiens (human) Caki1 assessed as cell growth at 10 uM after 48 hr by SRB assay relative to control; details: CAKI-1, 48 h, read-out: Activity
[1] = Cytotoxicity against Homo sapiens (human) NCI-ADR-RES assessed as cell growth at 10 uM after 48 hr by SRB assay relative to control; details: read-out: Activity
OVCAR-3 = assay: Cytotoxicity against Homo sapiens (human) OVCAR3 assessed as cell growth at 10 uM after 48 hr by SRB assay relative to control; details: OVCAR-3, 48 h, read-out: Activity
UACC-62 = assay: Cytotoxicity against Homo sapiens (human) UACC62 assessed as cell growth at 10 uM after 48 hr by SRB assay relative to control; details: UACC-62, 48 h, read-out: Activity
UACC-257 = assay: Cytotoxicity against Homo sapiens (human) UACC257 assessed as cell growth at 10 uM after 48 hr by SRB assay relative to control; details: UACC-257, 48 h, read-out: Activity
SK-MEL-5 = assay: Cytotoxicity against Homo sapiens (human) SK-MEL-5 assessed as cell growth at 10 uM after 48 hr by SRB assay relative to control; details: SK-MEL-5, 48 h, read-out: Activity
SK-MEL-2 = assay: Cytotoxicity against Homo sapiens (human) SK-MEL-2 assessed as cell growth at 10 uM after 48 hr by SRB assay relative to control; details: SK-MEL-2, 48 h, read-out: Activity
M14 = assay: Cytotoxicity against Homo sapiens (human) M14 assessed as cell growth at 10 uM after 48 hr by SRB assay relative to control; details: M14, 48 h, read-out: Activity
U-251 = assay: Cytotoxicity against Homo sapiens (human) U251 assessed as cell growth at 10 uM after 48 hr by SRB assay relative to control; details: U-251, 48 h, read-out: Activity
HL-60(TB) = assay: Cytotoxicity against Homo sapiens (human) HL-60(TB) assessed as cell growth at 10 uM after 48 hr by SRB assay relative to control; details: HL-60, 48 h, read-out: Activity
T47D = assay: Cytotoxicity against Homo sapiens (human) T47D assessed as cell growth at 10 uM after 48 hr by SRB assay relative to control; details: read-out: Activity
Hs-578T = assay: Cytotoxicity against Homo sapiens (human) Hs 578T assessed as cell growth at 10 uM after 48 hr by SRB assay relative to control; details: read-out: Activity
TK-10 = assay: Cytotoxicity against Homo sapiens (human) TK10 assessed as cell growth at 10 uM after 48 hr by SRB assay relative to control; details: TK-10, 48 h, read-out: Activity
786-0 = assay: Cytotoxicity against Homo sapiens (human) 786-0 assessed as cell growth at 10 uM after 48 hr by SRB assay relative to control; details: 786-0, 48 h, read-out: Activity
NCI-H322M = assay: Cytotoxicity against Homo sapiens (human) NCI-H322M assessed as cell growth at 10 uM after 48 hr by SRB assay relative to control; details: read-out: Activity
UO-31 = assay: Cytotoxicity against Homo sapiens (human) UO31 assessed as cell growth at 10 uM after 48 hr by SRB assay relative to control; details: UO-31, 48 h, read-out: Activity
Malme-3M = assay: Cytotoxicity against Homo sapiens (human) MALME-3M assessed as cell growth at 10 uM after 48 hr by SRB assay relative to control; details: read-out: Activity

| Compound | growth at 10 µM (SNB-19) | growth at 10 µM (SF-539) | growth at 10 µM (HCT-116) | growth at 10 µM (NCI-H522) | growth at 10 µM (EKVX) | growth at 10 µM (SR) | growth at 10 µM (CAKI-1) | growth at 10 µM [1] | growth at 10 µM (OVCAR-3) | growth at 10 µM (UACC-62) | growth at 10 µM (UACC-257) | growth at 10 µM (SK-MEL-5) | growth at 10 µM (SK-MEL-2) | growth at 10 µM (M14) | growth at 10 µM (U-251) | growth at 10 µM (HL-60(TB)) | growth at 10 µM (T47D) | growth at 10 µM (Hs-578T) | growth at 10 µM (TK-10) | growth at 10 µM (786-0) | further results |
| --- | --- | --- | --- | --- | --- | --- | --- | --- | --- | --- | --- | --- | --- | --- | --- | --- | --- | --- | --- | --- | --- |
| CCOC(=O)c1c(Nc2ccc(S(N)(=O)=O)cc2)nnc(-c2ccccc2)c1-c1ccccc1 | 108% | 108% | 93.3% | 111% | 105% | 76.1% | 83.8% | 96.8% | 118% | 90.2% | 101% | 94.6% | 123% | 104% | 95% | 71.2% | 91.3% | 116% | 108% | – | – |
| CC1=NN(C(=O)c2sc3nnc(-c4ccccc4)c(-c4ccccc4)c3c2O)C(=O)C1 | 60.7% | 109% | 89.8% | 87.4% | 74.3% | 68.6% | 31% | 16% | 84.7% | 77.4% | 86.8% | 80.2% | 110% | 87.4% | 71.7% | 69.4% | 82.2% | 89.6% | 103% | 65.9% | – |
| CC(=O)Oc1c(C2=NN(C(C)=O)C(c3ccc(F)cc3)O2)sc2nnc(-c3ccccc3)c(-c3ccccc3)c12 (configuration not stated) | 82.6% | 104% | 80.5% | 80.4% | 113% | 79.3% | – | 85.3% | 96.3% | 57.5% | 113% | 88.2% | 99.9% | 102% | 105% | 83.8% | 90% | 120% | 94.1% | 94.7% | growth at 10 µM (NCI-H322M): 85.7%; growth at 10 µM (UO-31): 83.3% |
| Oc1c(-c2n[nH]c(=S)o2)sc2nnc(-c3ccccc3)c(-c3ccccc3)c12 | 103% | 106% | 103% | 102% | 102% | 83.4% | 93.3% | – | 115% | 94.3% | 97% | 94.7% | 106% | 99.5% | 106% | 101% | 105% | 121% | 103% | 108% | – |
| Oc1c(-c2nnc(-c3ccccc3)o2)sc2nnc(-c3ccccc3)c(-c3ccccc3)c12 | 57.2% | 68.5% | 47.4% | 97.2% | 94.1% | 46.8% | 29.1% | 18.8% | 72.4% | 51.1% | 99.8% | 71.2% | 106% | 69.6% | – | 83.2% | 81.1% | 97% | 90.6% | 79.9% | growth at 10 µM (NCI-H322M): 42.5%; growth at 10 µM (Malme-3M): 83.5% |
| CNc1nnc(-c2sc3nnc(-c4ccccc4)c(-c4ccccc4)c3c2O)s1 | 105% | 109% | 102% | 111% | 112% | 78.2% | 72% | 105% | 116% | 97.5% | 94.5% | 104% | 126% | 107% | – | 107% | 97.6% | 109% | 108% | 108% | growth at 10 µM (NCI-H322M): 106%; growth at 10 µM (Malme-3M): 111% |
| CCOC(=O)c1c(Nc2ccc(S(=O)(=O)Nc3nccs3)cc2)nnc(-c2ccccc2)c1-c1ccccc1 | 108% | 117% | 98.6% | 103% | 102% | 76.2% | 107% | – | 120% | 92.9% | 104% | 97.6% | 118% | 104% | 98.5% | 104% | 104% | 118% | 109% | 109% | – |
| Oc1c(-c2nnc(SCc3ccccc3)o2)sc2nnc(-c3ccccc3)c(-c3ccccc3)c12 | 103% | 122% | 83.3% | 88.5% | 122% | 106% | 114% | 93.5% | 126% | 78.6% | 134% | 99.7% | 93.1% | 108% | 122% | 69.8% | 104% | 135% | 92.9% | 105% | growth at 10 µM (NCI-H322M): 93.6% |
| CSc1nnc(-c2sc3nnc(-c4ccccc4)c(-c4ccccc4)c3c2O)o1 | 66.4% | 84.6% | 60.9% | 96.6% | 77.5% | 62.5% | 43.5% | 85.5% | 86.8% | 58.9% | 91.6% | 83.5% | 102% | 73% | 62.9% | 107% | 75% | 98.4% | 100% | 88.7% | – |
| CC(=O)Oc1c(C2=NN(C(C)=O)C(c3ccccc3[N+](=O)[O-])O2)sc2nnc(-c3ccccc3)c(-c3ccccc3)c12 (configuration not stated) | 88.6% | 107% | 76.8% | 92% | – | 49% | 98% | 98.4% | 93.4% | 80% | 101% | 98.5% | 101% | 91.8% | 80.5% | 58.9% | 97.5% | 114% | 107% | 102% | growth at 10 µM (UO-31): 78.9%; growth at 10 µM (Malme-3M): 93.2% |
